Structures are written as SMILES. Some results are limits rather than exact numbers.

One may read the melting point as the temperature, or range, at which the solid turns liquid. Turning to `CCOC(=O)C(C)(C(=O)Nc1cc(Cl)cc(Cl)c1)S(C)=O` (stereo not drawn), the melting point is 124 to 127 °C.

In turn, `COC(=O)C(=O)c1ccc(C(=O)NCCOc2ccc3ccccc3c2)cc1` gave a melting point of 114 to 115 °C. For `CC(=O)n1c2ccc(O)cc2c2c3c(c(-c4ccccc4Cl)cc21)C(=O)NC3=O` the value was 258 to 261 °C; for `O=C1OC(CCCCN2CCN(c3ccccc3)CC2)CN1c1ccccc1` (stereo not drawn), 83 to 85 °C; for `CC(c1ccccc1)N1C(=O)NCc2c(-c3ccccc3)cccc21` (stereo not drawn), 136 to 138 °C. The molecule `CN1CCC(c2ccccc2)(c2ccccc2)CC1` displayed a melting point of 71 to 73 °C. Molecule `CSC(C(=O)c1cc(-c2ccccc2)on1)N1CCCCC1` (stereo not drawn) yielded a melting point of 113 to 115 °C. On to `CC(=O)Oc1cc2c(cc1C=O)C1CCC3(C)C(O)CCC3C1CC2` (stereo not drawn), for which the melting point is 73 to 75 °C.

As for `CC(C)(C)OC(=O)N1CCC[C@H]1COc1cnc(Cl)c(-c2ccc(Cl)cc2)c1`, the melting point fell in the range of 86 to 89 °C. The result for `CC1(C)COc2cc(Cl)c(Cl)cc2C(O)(c2cccnc2)C1` (stereo not drawn) reads 166 °C; that for `COC(=S)NC1(N=NC(C)(C)C)CCCCC1`, 79 to 82 °C; that for `CC(C)(C)OC(=O)Nc1ccccc1NC(=O)c1ccc(CBr)cc1`, 282 to 283 °C. `CCOC(=O)Cc1cn(Cc2ccccc2)nc1OCc1ccc(OCc2nc(-c3ccccc3)oc2C)c(OC)c1` returned a melting point of 86 to 87 °C.

`Cc1nc[nH]c1C(=O)OC(C)C`: the melting point fell in the range of 188 to 190 °C. Take `CCOC(=O)c1cnc2nn(C)cc2c1OCCC(C)C`: the melting point fell in the range of 100 to 102 °C.

In turn, `N#Cc1cnc2c(c1)N(Cc1cc(F)ccc1F)CCN2` had a melting point of 204 to 206 °C. The result for `Cn1c([N+](=O)[O-])cnc1-c1nnc(N)s1` reads 266 to 268 °C; that for `O=C(NCCCc1ccncc1)N(CCC12CC3CC(CC(C3)C1)C2)Cc1ccccc1`, 130 to 135 °C. Molecule `Cc1c(-c2ccccc2)n(Cc2ccccc2)c2ccc(-c3ccc(OCC(=O)O)cc3)cc12` registered a melting point of 174 to 175 °C.

Molecule `O=C1NC2(C(=O)O)CC3CC1C2C3` (stereo not drawn) came in with a melting point of 298 to 300 °C.

`CCCCc1nnc(-c2ccco2)n1Cc1ccc(NC(=O)c2ccccc2C(=O)O)cc1`: the melting point fell in the range of 170 to 171 °C.

Take `CN(c1cccc2cc(-c3ncc(CO)s3)[nH]c12)S(=O)(=O)c1cccs1`: the melting point lay in the range of 201 to 202 °C.

For `CCOc1cc(C(CC(=O)OC)N2C(=O)c3ccc(N)cc3C2=O)ccc1OC` (stereo not drawn), the melting point fell in the range of 65 to 67 °C. For `COc1cc(-c2nn(C)c(C(F)(F)F)c2Br)c(F)cc1Cl` the value was 85 to 86 °C. `CCCCc1c2c(nn1CCC)c(N)nc1ccccc12` showed a melting point of 164 to 166 °C. For `COc1cc2ncnc(N3CCC(C(O)CN4CCC(C)NS4(=O)=O)CC3)c2cc1OC` (stereo not drawn) the value was 189 to 193 °C. For `COc1ncc(-c2ccc3nnn(Cc4ccc5ncccc5c4)c3n2)cn1` the value was 201 to 203 °C.

In turn, `CCOc1cc2c3c(c4cc(OCC)c(OCC)cc4c2cc1OCC)C(=O)C=CC3=O` showed a melting point of 188 to 190 °C.

The molecule `O=C(O)CCCNC(=O)c1ccccc1NC(=O)c1cccc(Cl)c1` gave a melting point of 165 to 166 °C. The result for `Cc1oc(-c2ccccc2)nc1COc1ccc(C(=O)Nc2nn(-c3ccccc3)cc2C=O)cc1` reads 185 to 186 °C; that for `Cc1ccccc1C(=O)N1CCC(=NO)c2ccc(Cl)cc21`, 166 to 168 °C; that for `CC(C)(C)c1cc(SCCC(=O)O)cc(C(C)(C)C)c1O`, 108 to 110 °C.

As for `C#CCOc1cc(-n2c(=O)nc(N(C)C)n(C)c2=O)c(F)cc1Cl`, the melting point lay within 61 to 65 °C. The result for `CCN(C)c1cccc(Cl)c1COc1cccn2c(Br)c(C)nc12` reads 124 to 126 °C; that for `Ic1cccc2cc3ccccc3cc12`, 152 to 154 °C; that for `CCOC(=O)c1cnn(C)c1C(=O)Nc1ccn2nc(-c3ccnc(F)c3)nc2c1`, 220 to 230 °C.

Regarding `CCC(C(O)c1ccc(Cl)cc1)n1ncn(-c2ccc(N3CCN(C(=O)c4ccccn4)CC3)nc2)c1=O` (stereo not drawn), the melting point was determined as 210 °C. On to `Cc1ccc(NC(=O)C2C(=O)C3CC[C@](C)(C2=O)C3(C)C)cc1` (stereo partly drawn), for which the melting point is 80 to 82 °C. For `CC(C)n1c(C=O)c(-c2ccc(F)cc2)c(-c2ccccc2)c1C(=O)NCc1ccc(F)cc1` the value was 171 to 172 °C. The result for `Cc1cccc2ncc(C(=O)NCc3ccc(Cl)cc3)c(O)c12` reads 205 to 206 °C; that for `FC(F)(F)c1cccc(Nc2ccccc2-c2n[nH]c(=S)s2)c1`, 140 to 142 °C. The result for `CCC1CC(=O)N(CCc2ccc(NC(=O)c3ccno3)cc2)N=C1c1ccc(OC)c(OC)c1` (stereo not drawn) reads 196 °C. `Oc1c(Br)cc(-c2c3ccccc3c(C(F)(F)F)c3sc4ccccc4c23)cc1Br` returned a melting point of 223 to 225 °C.

`CCC1OCCn2c1nc(C(=O)NCc1ccc(F)cc1-n1ncnc1C)c(OCc1ccccc1)c2=O` (stereo not drawn): the melting point came to 163 °C.

With `COc1cc(C)cc(OC)c1CCCCCNC(=O)[C@@H](CCCCNC(=O)C=Cc1ccccc1)NC(=O)c1cc2ccccc2n1CC(=O)O`, the melting point turned out to be 172 °C. The molecule `CN(C)c1ncc(-c2cccc(Nc3ccc(-c4ccoc4)cc3[N+](=O)[O-])c2)cn1` returned a melting point of 181 to 182 °C. For `CC(C)c1ccc2oc3cc(C#N)c(O)nc3c(=O)c2c1` the value was over 300 °C; for `COP(=O)(O)CNc1cc(Cl)c(Oc2ccc(O)c3ccccc23)c(Cl)c1`, 85 to 87 °C; for `c1ccc(CCNc2cc(-n3cccn3)nc(-c3cccs3)n2)nc1`, 159 to 160 °C. On to `COc1cccc(CCC(=O)C2C(=O)CCC2=O)c1O`, for which the melting point was 108 to 109 °C. For `COC(=O)c1ccc(Br)c(C=O)c1` the value was 71 to 74 °C; for `Nc1c2c(nn1-c1ccc(Cl)cc1)CCCC2`, 140 to 142 °C. For `O=C(c1ccc(Br)cc1)c1cccc2cc[nH]c12` the value was 162 to 164 °C; for `CN1C(=O)C(c2c[nH]c3ncccc23)=C(c2cn(S(=O)(=O)c3ccccc3)c3ncccc23)C1=O`, 198 °C; for `Clc1ccc(C(=C2SCCCS2)C2CC2)cc1`, 91 to 95 °C.

The molecule `Cn1cncc1C(O)c1ccc2c(c1)c(-c1cccc(Cl)c1)cc(=O)n2C` (stereo not drawn) came in with a melting point of 167 °C. For `O=c1c2ccccc2ccc2ccc(S(=O)(=O)C(F)(F)F)cc12` the value was 145 to 149 °C. Molecule `COc1cc2ccc3c(OC)cccc3c2c(OC)c1OC` returned a melting point of 80 to 82 °C. Molecule `N#CC1CN1C(=O)c1ccc(-c2ccccc2)cc1` (stereo not drawn) came in with a melting point of 104 to 106 °C. Consider `Cc1nc(NC2CCCC2O)c2ncn(C3OC(CO)C(O)C3O)c2n1` (stereo not drawn), for which the melting point is 188 to 192 °C. The molecule `Cc1ccc(-c2ccc3c(c2)C=C(C(=O)Nc2ccc(CN(CCO)CCO)cc2)CC3)cc1` displayed a melting point of 150 to 151 °C. For `CCc1cc(-c2ccc(OC)cc2)ccc1[N+](=O)[O-]` the value was 94 to 95 °C; for `CCc1cc(=O)cc(CC)[nH]1`, 103 to 110 °C. For `COc1ccc(-c2nc(N)n3nc(-c4ccco4)nc3n2)cc1` the value was over 275 °C; for `CC(C)=CC(C#N)NC(=O)c1cc(C)nn1C` (stereo not drawn), 92.5 to 94 °C. In the case of `COC(=O)c1nc2ccccc2c(N)c1C(=O)OC`, the melting point lay within 167 to 168 °C.

With `CN(C)Cc1nc(C(N)=O)nn1-c1ccc(Cl)cc1C(=O)c1ccccc1Cl`, the melting point lay in the range of 177 to 180 °C.

In turn, `CCOC(=O)c1cc(=O)c2c(OCC(O)CSC)cccc2o1` (stereo not drawn) displayed a melting point of 69 to 71 °C. In the case of `N#Cc1cnc2c(sc3ccccc32)c1Oc1ccc(Cl)cc1F`, the melting point lay in the range of 174 to 175 °C.

In turn, `CC(CN1C(=O)c2ccccc2C1=O)c1c[nH]c2ccc(C#N)cc12` (stereo not drawn) showed a melting point of 218 to 220 °C.

`CCCCOc1ccc(S(=O)(=O)C2(C(=O)OCC)CCN(Cc3ccc(F)cc3)CC2)cc1` came in with a melting point of 114 °C. The result for `O=C(c1ccc2nc(C3CC3)n(Cc3ccccc3Cl)c2c1)C1CNCCO1` (stereo not drawn) reads 193 to 195 °C. `CN1C(=O)[C@@](NC(=O)Nc2cccc(Nc3nnn[nH]3)c2)(C2CCCCC2)N=Cc2ccccc21` returned a melting point of 190 to 193 °C. `CC(C)(C#N)c1cc(Cn2cncn2)cc(C(C)(C)C#N)c1` came in with a melting point of 81 to 82 °C. For `CC(C)CNC(=O)CN1CCN(Cc2ccc3c(c2)NC(=O)C(C)O3)CC1` (stereo not drawn) the value was 150 °C; for `CCn1nc(C(F)(F)F)c(CS(=O)(=O)C2=NOC(C)(CCl)C2)c1Cl` (stereo not drawn), 123 to 124 °C. Molecule `Nc1nc(C2CCN(C(=O)Cc3ccc4c(c3)OCO4)CC2)c2ccccc2n1` returned a melting point of 167 to 168 °C. Regarding `CCCCCCCC1(CCCCCCC)c2cc(Br)ccc2-c2ccc(Br)cc21`, the melting point lay in the range of 45 to 46 °C.

Molecule `CS(=O)(=O)NC(=O)CCCCOc1cccc2occc12` had a melting point of 110 to 112 °C.

Regarding `Cc1oc2ccc(C#N)cc2c1Cl`, the melting point lay within 132 to 134 °C. The result for `CCCCCCCCCCCCC/C=C(/C(=O)Nc1ccc(C(=O)O)cc1)c1ccc2c(c1)C(C)(C)CCC2(C)C` reads 59 to 60 °C. The result for `CC(C)CCCC(C)C1CCC2C3CC=C4CC(OC(=O)C(C)O)CCC4(C)C3CCC12C` (stereo not drawn) reads 120 to 122 °C. For `N#Cc1ccc(COc2ccc(-c3ccc(C4Cc5ccccc5C(O)C4)cc3)cc2)cc1` (stereo not drawn) the value was 172 °C; for `O=C(NC(=O)c1c(Cl)cccc1Cl)Nc1noc(-c2ccc(C(F)(F)F)cc2)c1Cl`, 237 to 238 °C; for `O=c1[nH]c2ccc(-c3cccc(Cl)c3)cc2n1Cc1ccccc1`, 168 to 169 °C.

For the molecule `Cc1nc(COc2cc(-n3c(=O)cc(C(F)(F)F)n(C)c3=O)c(F)cc2Cl)cs1`, the melting point is 145 to 147 °C. Molecule `CN(C)Cc1cccc(-c2cc3c(=O)n(NS(C)(=O)=O)c(=O)[nH]c3cc2C(F)(F)F)c1` gave a melting point of 346 to 348 °C. Take `COC=C(C(=O)OC)c1ccccc1CSc1ccc2ccccc2c1`: the melting point was in the range of 52 to 58 °C.

The values are drawn from a melting point compilation (Tetko et al.; mined from patent text by program, amines drawn as free bases though some values may be those of a salt).
